From ChEMBL document CHEMBL5385848, “Discovery of novel hydroxyamidine based indoleamine 2,3-dioxygenase 1 (IDO1) and thioredoxin reductase 1 (TrxR1) dual inhibitors” (Eur J Med Chem, 2023) come the findings set out here.

Data set [1] deals with T1, Indoleamine 2,3-dioxygenase 1 (Homo sapiens, UniProt P14902). The data set is described as follows: Inhibition of IDO1 in human HeLa cells using L-Tryptophan as substrate incubated for 24 hrs by microplate reader analysis. The data set is classed as cell-based.
The target of data set [2] is T1, Indoleamine 2,3-dioxygenase 1. The data set is described as follows: Inhibition of IDO1 in human HCT-116 cells using L-Tryptophan as substrate incubated for 24 hrs by microplate reader analysis. The data set is classed as cell-based.
In data set [3] the test system is CT26. The data set is described as follows: Antitumor activity against mouse CT26 cells implanted in athymic nude BALB/c mouse assessed as increase in CTL proliferation by measuring Ki67 expression at 15 to 60 mg/kg, ig administered daily for 28 days and measured every 4 days by flow cytometry analysis. As to conditions: dose 15-60 mg/kg, time 28.0 day. The data set is classed as functional, organism-based.

A further data set has as its system IDO1. The data set is described as follows: Selectivity ratio of IC50 for cytotoxicity against mouse CT26 cells to EC50 for inhibition of IDO1 in mouse CT26 cells. The data set is classed as cell-based. The note with it: read-out: Ratio IC50/EC50.
Data set [4] deals with HeLa. Description: Cytotoxicity against TrxR1 knockdown human HeLa cells incubated for 24 hrs by CCK-8 assay (reference value: 13.79 +/- 2 uM). The class given is functional, cell-based.
Data set [5] deals with Thioredoxin reductase 2, mitochondrial (Homo sapiens, UniProt Q9NNW7). The data set is described as follows: Inhibition of TrxR2 (unknown origin) incubated for 1 hr in presence of NADPH by microplate reader analysis.
For data set [6], the system named is HCT-116. Description: Induction of apoptosis in human HCT-116 cells assessed as apoptotic rate at 2.5 uM incubated for 24 hrs by Annexin-V/PI staining based flow cytometry analysis. The class given is functional.
Data set [7] concerns HeLa. Description: Cytotoxicity against IDO1 knockdown human HeLa cells incubated for 24 hrs by CCK-8 assay (reference value: 45.93 +/- 2.23 nM). The class given is functional, cell-based.
The test system of data set [8] is HCT-116. Description: Induction of apoptosis in human HCT-116 cells assessed as apoptotic rate at 5 uM pretreated with NAC incubated for 24 hrs by Annexin-V/PI staining based flow cytometry analysis (reference value: 9.8 +/- 1.59%). The data set is classed as functional.
The nature of data set [9]: Toxicity in athymic nude BALB/c mouse assessed as weight gain at 15 to 60 mg/kg, ig administered daily for 28 days and measured every 4 days. The note with it: in vivo, po, 672 h, dose 15-60 mg/kg, time 28 day. The class given is organism-based.
Data set [10] has as its system CT26. Description: Antitumor activity against mouse CT26 cells implanted in athymic nude BALB/c mouse assessed as reduction in nTreg lymphocytes at 15 to 60 mg/kg, ig administered daily for 28 days and measured every 4 days by immunofluorescence analysis. The data set is classed as functional, organism-based. The note with it: dose 15-60 mg/kg, time 28.0 day.
The test system of data set [11] is HCT-116. The data set is described as follows: Induction of apoptosis in human HCT-116 cells assessed as caspase-7 activation incubated for 24 hrs. The note with it: dose 2.5-10 µM. The class given is functional, cell-based.
Data set [12] deals with Indoleamine 2,3-dioxygenase 1 (Mus musculus) (UniProt P28776). Description: In vivo inhibition of IDO1 in BALB/c mouse implanted with mouse CT-26 cells assessed as increase in tumor Trp level at 60 mg/kg, po administered once daily by LC-MS/MS analysis. The class given is functional, organism-based.
Data set [13] relates to HCT-116. Description: Induction of apoptosis in human HCT-116 cells assessed as apoptotic rate at 5 uM incubated for 24 hrs by Annexin-V/PI staining based flow cytometry analysis. The class given is functional.
Data set [14] addresses Indoleamine 2,3-dioxygenase 1 (Mus musculus) (UniProt P28776). Description: In vivo inhibition of IDO1 in BALB/c mouse implanted with mouse CT-26 cells assessed as reduction in tumor Kyn level at 60 mg/kg, po administered once daily by LC-MS/MS analysis. The class given is functional, organism-based.
The target is the same in data set [15]. The data set is described as follows: In vivo inhibition of IDO1 in C57BL/6 mouse assessed as increase in plasma Trp level at 60 mg/kg, po administered once daily by LC-MS/MS analysis. The class given is functional, organism-based.
The target of data set [16] is T2, Thioredoxin reductase 1, cytoplasmic (Rattus norvegicus, UniProt O89049).
T2 sequence (O89049 whole entry): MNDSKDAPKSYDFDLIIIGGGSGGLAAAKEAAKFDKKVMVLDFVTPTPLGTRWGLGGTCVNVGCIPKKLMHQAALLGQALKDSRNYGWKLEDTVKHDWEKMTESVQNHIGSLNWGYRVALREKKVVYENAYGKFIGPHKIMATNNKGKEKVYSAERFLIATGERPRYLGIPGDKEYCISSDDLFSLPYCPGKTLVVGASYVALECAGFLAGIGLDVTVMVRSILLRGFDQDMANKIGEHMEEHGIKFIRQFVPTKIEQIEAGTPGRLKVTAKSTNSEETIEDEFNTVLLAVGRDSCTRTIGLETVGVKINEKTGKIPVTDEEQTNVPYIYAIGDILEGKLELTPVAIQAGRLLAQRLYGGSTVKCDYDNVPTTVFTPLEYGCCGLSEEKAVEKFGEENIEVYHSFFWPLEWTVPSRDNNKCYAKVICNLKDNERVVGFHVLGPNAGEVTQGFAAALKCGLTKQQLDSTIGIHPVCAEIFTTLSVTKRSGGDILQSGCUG
The data set is described as follows: Inhibition of recombinant rat TrxR1 incubated for 1 hr in presence of NADPH by microplate reader analysis.

The target in data set [17] is T3, Thioredoxin reductase 1, cytoplasmic (Homo sapiens, UniProt Q16881).
T3 sequence (Q16881 whole entry): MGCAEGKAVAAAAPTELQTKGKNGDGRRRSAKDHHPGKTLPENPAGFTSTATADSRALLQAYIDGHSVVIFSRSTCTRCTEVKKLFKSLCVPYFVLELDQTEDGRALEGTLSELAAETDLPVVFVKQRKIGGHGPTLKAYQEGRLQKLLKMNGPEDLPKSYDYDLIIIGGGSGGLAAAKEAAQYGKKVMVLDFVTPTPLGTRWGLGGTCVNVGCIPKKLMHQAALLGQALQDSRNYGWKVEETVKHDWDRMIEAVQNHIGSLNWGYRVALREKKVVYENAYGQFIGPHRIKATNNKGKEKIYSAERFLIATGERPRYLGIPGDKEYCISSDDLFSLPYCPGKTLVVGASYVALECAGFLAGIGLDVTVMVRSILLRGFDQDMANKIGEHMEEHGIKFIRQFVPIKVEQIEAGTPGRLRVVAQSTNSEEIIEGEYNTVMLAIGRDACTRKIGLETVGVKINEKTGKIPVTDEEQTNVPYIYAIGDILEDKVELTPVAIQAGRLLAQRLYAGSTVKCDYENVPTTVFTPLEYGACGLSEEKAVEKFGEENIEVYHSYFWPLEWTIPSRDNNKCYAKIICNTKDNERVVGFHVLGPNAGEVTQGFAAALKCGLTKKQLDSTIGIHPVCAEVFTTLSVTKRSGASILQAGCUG
The data set is described as follows: Inhibition of TrxR1 in human HeLa cells incubated for 24 hrs. The class given is cell-based.

Data set [18] concerns HeLa. The data set is described as follows: Cytotoxicity against human HeLa cells incubated for 24 hrs CCK-8 assay. The class given is functional, cell-based.
Data set [19] deals with CT26. Description: Antitumor activity against mouse CT26 cells implanted in athymic nude BALB/c mouse assessed as increase in CTL proliferation by measuring Ki67 expression at 60 mg/kg, ig administered daily for 28 days and measured every 4 days by immunofluorescence analysis. The class given is functional, organism-based. The note with it: time 28.0 day.
In data set [20] the test system is HCT-116. Description: Induction of apoptosis in human HCT-116 cells assessed as apoptotic rate at 2.5 uM pretreated with NAC incubated for 24 hrs by Annexin-V/PI staining based flow cytometry analysis (reference value: 9.8 +/- 1.59%). The class given is functional.
The test system of data set [21] is HCT-116. The data set is described as follows: Antitumor activity against human HCT-116 cells xenografted in athymic nude BALB/c mouse assessed as increase in necrosis of tumor cells at 15 to 60 mg/kg, ig administered daily for 28 days and measured every 4 days. The note with it: dose 15-60 mg/kg, time 28.0 day. The class given is functional, organism-based.

The source made the active and inactive calls. No cut-off for these calls is given here.

Indoleamine 2,3-dioxygenase 1 (Mus musculus), sequence (P28776 whole entry, looked up): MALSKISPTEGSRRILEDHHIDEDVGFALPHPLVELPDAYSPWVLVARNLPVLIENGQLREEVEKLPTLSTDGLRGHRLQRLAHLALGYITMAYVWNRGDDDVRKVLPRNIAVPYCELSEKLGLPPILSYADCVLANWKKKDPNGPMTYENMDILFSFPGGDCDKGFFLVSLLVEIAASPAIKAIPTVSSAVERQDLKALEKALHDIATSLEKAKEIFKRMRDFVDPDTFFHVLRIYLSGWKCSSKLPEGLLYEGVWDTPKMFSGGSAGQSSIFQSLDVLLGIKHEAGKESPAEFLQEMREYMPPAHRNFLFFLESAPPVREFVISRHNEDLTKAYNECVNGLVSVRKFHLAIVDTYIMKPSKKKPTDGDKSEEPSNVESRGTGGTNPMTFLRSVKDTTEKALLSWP
T1 sequence (P14902 whole entry): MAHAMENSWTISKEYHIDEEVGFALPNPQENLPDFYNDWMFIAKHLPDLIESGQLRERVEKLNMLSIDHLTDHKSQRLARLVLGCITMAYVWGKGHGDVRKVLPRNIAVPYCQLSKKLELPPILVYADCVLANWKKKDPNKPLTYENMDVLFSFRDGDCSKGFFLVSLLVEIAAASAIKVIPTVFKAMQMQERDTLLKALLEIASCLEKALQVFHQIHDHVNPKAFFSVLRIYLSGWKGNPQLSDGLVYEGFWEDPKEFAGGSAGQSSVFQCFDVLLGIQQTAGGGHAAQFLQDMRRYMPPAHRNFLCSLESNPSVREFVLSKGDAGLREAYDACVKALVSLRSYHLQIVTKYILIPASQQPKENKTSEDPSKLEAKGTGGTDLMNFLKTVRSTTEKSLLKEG
Thioredoxin reductase 2, mitochondrial, sequence (Q9NNW7 whole entry): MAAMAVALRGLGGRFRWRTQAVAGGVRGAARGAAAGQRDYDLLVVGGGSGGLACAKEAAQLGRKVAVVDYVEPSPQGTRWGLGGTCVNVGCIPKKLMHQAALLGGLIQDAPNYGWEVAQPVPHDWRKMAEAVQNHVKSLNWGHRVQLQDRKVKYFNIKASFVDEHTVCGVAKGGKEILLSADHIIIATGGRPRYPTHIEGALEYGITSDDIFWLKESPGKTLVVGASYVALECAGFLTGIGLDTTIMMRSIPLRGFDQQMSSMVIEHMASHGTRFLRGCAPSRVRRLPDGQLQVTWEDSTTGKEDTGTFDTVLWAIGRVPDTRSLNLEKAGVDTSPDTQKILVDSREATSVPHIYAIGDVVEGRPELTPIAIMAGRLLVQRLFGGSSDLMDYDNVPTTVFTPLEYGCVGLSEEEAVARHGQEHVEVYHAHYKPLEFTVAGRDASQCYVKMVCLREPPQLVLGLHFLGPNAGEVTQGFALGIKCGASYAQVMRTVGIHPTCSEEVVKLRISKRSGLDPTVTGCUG

For the molecule `O=C(Cc1ccc(O)cc1)Nc1nnc(CCCNc2nonc2/C(=N\O)Nc2ccc(F)c(Br)c2)s1`, the EC50 in [1] amounted to 45.6 µM; in data set [2] it was 34.1 µM; in data set [17] it was 13.1 µM. Also, the outcome (in the data set on CT26 [3]; with CT26 [10]; in [12]; in [14]; in data set [15]; in the data set with CT26 [19]) was Active. In addition, the result with HCT-116 [21] was Active. Also, the selectivity ratio in the data set on IDO1 was 5.35. For the same molecule, the IC50 with HeLa [4] is 7.2 µM; in [5], over 500 µM; in the data set with HeLa [7] it was 26.1 µM; in data set [16], 3 µM; with HeLa [18] it was 16.1 µM. Moreover, the Activity in the data set with HCT-116 [6] is 22.57%; in the data set on HCT-116 [8], 11.98%; in data set [9], “Toxic”; in the data set with HCT-116 [11], “Dose-Dependent Effect”; with HCT-116 [13], 30.64%; with HCT-116 [20], 10.37%.
